Results as given in ChEMBL document CHEMBL1128364 (J Med Chem, 1995).

Key:
[1] = molecular target: Vasopressin V2 receptor (Rattus norvegicus) (UniProt Q00788); assay: (§1) Antidiuretic activity at V2 receptor; format: tissue-based; details: Urine
[2] = molecular target: Vasopressin V1a receptor (Rattus norvegicus, UniProt P30560); assay: (§2) Anti-vasopressor activity at V1a receptor; details: for Kb: read-out: pA2 (converted)
[3] = molecular target: Vasopressin V1a receptor (Rattus norvegicus) (UniProt P30560); assay: as §2
[4] = molecular target: T1, Oxytocin receptor (Rattus norvegicus, UniProt P70536); assay: In vitro anti-oxytocic activity with 0.5 mM Mg2+.; details: for Kb: read-out: pA2 (converted)
T1 sequence (P70536 whole entry): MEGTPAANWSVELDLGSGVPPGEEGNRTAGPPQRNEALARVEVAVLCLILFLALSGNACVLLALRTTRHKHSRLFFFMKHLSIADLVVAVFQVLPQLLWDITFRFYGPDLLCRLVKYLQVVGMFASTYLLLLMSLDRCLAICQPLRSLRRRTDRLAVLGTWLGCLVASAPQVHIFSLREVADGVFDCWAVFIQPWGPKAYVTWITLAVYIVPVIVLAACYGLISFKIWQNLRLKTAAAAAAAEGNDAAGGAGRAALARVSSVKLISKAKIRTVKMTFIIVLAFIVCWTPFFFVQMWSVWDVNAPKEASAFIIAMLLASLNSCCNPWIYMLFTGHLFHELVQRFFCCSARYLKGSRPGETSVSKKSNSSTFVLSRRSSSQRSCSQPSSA

[5] = molecular target: Vasopressin V2 receptor (Rattus norvegicus, UniProt Q00788); assay: as §1; format: tissue-based, Urine; details: read-out: pA2 (converted)
[6] = tested on: Rattus norvegicus; assay: (§3) In vivo anti-oxytocic activity was determined.; format: functional, organism-based; details: read-out: pA2 (converted)
[7] = molecular target: T1, Oxytocin receptor; assay: In vitro anti-oxytocic activity with out Mg2+.; details: for Kb: read-out: pA2 (converted)
[8] = molecular target: T1, Oxytocin receptor; assay: In vitro antioxycic activity with out Mg2+.; details: read-out: pA2 (converted)
[9] = molecular target: Vasopressin V2 receptor (Rattus norvegicus) (UniProt Q00788); assay: Antidiuretic activity at V2 receptor.; details: Urine
[10] = tested on: Rattus norvegicus; assay: (§4) In vivo activity for the anti-oxytocic activity.; format: functional, organism-based; details: read-out: pA2 (converted)
[11] = tested on: Rattus norvegicus; assay: as §3; format: functional
[12] = tested on: Rattus norvegicus; assay: as §4; format: functional

Vasopressin V1a receptor, sequence (P30560 whole entry): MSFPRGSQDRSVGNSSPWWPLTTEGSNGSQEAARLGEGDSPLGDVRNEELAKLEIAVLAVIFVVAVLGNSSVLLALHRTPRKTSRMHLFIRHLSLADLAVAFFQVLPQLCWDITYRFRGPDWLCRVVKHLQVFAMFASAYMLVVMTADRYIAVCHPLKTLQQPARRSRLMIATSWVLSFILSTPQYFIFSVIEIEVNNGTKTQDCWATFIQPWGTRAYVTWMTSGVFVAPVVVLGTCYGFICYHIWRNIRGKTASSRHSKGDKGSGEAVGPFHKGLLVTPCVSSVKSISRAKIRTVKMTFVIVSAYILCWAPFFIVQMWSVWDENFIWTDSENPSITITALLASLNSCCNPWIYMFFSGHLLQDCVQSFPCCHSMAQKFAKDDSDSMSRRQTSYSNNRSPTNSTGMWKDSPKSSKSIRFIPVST
Vasopressin V1a receptor (Rattus norvegicus), sequence (P30560 whole entry, looked up): as the sequence (P30560 whole entry) above
Vasopressin V2 receptor (Rattus norvegicus), sequence (Q00788 whole entry): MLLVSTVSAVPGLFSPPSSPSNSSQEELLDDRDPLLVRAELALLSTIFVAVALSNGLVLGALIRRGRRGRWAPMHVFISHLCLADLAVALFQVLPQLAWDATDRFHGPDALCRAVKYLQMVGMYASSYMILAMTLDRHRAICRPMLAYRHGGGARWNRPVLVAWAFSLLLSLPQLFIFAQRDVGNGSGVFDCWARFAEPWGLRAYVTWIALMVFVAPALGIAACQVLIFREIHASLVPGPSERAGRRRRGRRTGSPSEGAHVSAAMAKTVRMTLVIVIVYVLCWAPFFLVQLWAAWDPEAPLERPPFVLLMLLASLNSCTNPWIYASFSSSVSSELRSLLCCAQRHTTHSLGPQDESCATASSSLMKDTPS
Vasopressin V2 receptor, sequence (Q00788 whole entry): as above

Molecule `CCOc1ccc(C[C@H]2NC(=O)CC3(CCCCC3)SSC[C@@H](C(=O)N3CCC[C@H]3C(=O)N[C@@H](CCCN=C(N)N)C(=O)NCC(N)=O)NC(=O)[C@H](CC(N)=O)NC(=O)[C@H](C(C)C)NC(=O)[C@H](Cc3ccccc3)NC2=O)cc1` has an ED [1] of 1.1 nM/kg, a Kb [2] of 6.03 nM and an ED [3] of 0.45 nM/kg.

`CC[C@H](C)[C@@H]1NC(=O)[C@H](Cc2ccc(OC)cc2)NC(=O)CC2(CCCCC2)SSC[C@H](C(=O)N2CCC[C@H]2C(=O)N[C@@H](CCCN)C(=O)O)NC(=O)[C@H](CC(N)=O)NC(=O)[C@H]([C@@H](C)O)NC1=O` showed a Kb [4] of 25.1 nM, a Kb [5] of 3980 nM and a Kb [2] of 275 nM. It also gave a Kb [6] of 138 nM and a Kb [7] of 18.6 nM.

For `CC[C@H](C)[C@@H]1NC(=O)[C@H](Cc2ccc(OC)cc2)NC(=O)CC2(CCCCC2)SSC[C@@H](C(=O)N2CCC[C@H]2C(=O)N[C@@H](CCCN)C(=O)N[C@@H](Cc2ccc(O)cc2)C(N)=O)NC(=O)[C@H](CC(N)=O)NC(=O)[C@H]([C@@H](C)O)NC1=O`, the Kb [4] was 5.25 nM, the Kb [8] was 23.4 nM and the Antidiuretic activity [1] was 0.015 U mg-1. The Kb [2] was 95.5 nM and the ED [3] was 6.6 nM/kg.

Molecule `CC(C)[C@@H]1NC(=O)[C@H](Cc2ccccc2)NC(=O)[C@@H](Cc2ccccc2)NC(=O)CC2(CCCCC2)SSC[C@H](C(=O)N2CCC[C@H]2C(=O)N[C@@H](CCCN=C(N)N)C(=O)NCC(N)=O)NC(=O)[C@H](CC(N)=O)NC1=O` has a Kb [5] of 56.2 nM, an ED [1] of 3.9 nM/kg and a Kb [2] of 27.5 nM. It also gave an ED [3] of 1.9 nM/kg.

Work on `NC(=O)CC[C@@H]1NC(=O)[C@H](Cc2ccccc2)NC(=O)[C@H](Cc2ccc(O)cc2)NC(=O)[C@H](N)CSSC[C@H](C(=O)N2CCC[C@H]2C(=O)N[C@@H](CCCN=C(N)N)C(=O)NCC(N)=O)NC(=O)[C@H](CC(N)=O)NC1=O` yielded an Antidiuretic activity [9] of 0.82 U mg-1.

In the case of `CC[C@H](C)[C@@H]1NC(=O)[C@H](Cc2ccc(OC)cc2)NC(=O)CC2(CCCCC2)SSC[C@H](C(=O)N2CCC[C@H]2C(=O)N[C@@H](CCCN)C(=O)NCC(N)=O)NC(=O)[C@H](CC(N)=O)NC(=O)[C@H](CCC(N)=O)NC1=O`, the Kb [4] is reported as 36.3 nM, the Kb [5] is reported as 1260 nM and the Kb [2] is reported as 56.2 nM. For the same molecule, the Kb [6] was 46.8 nM and the Kb [7] was 22.4 nM.

`CCOc1ccc(C[C@H]2NC(=O)CC3(CCCCC3)SSC[C@H](C(=O)N3CCC[C@H]3C(=O)N[C@@H](CCCN=C(N)N)C(=O)NCC(N)=O)NC(=O)[C@H](CC(N)=O)NC(=O)[C@H](C(C)C)NC(=O)[C@H](Cc3ccccc3)NC2=O)cc1` gave a Kb [10] of 69.2 nM and a Kb [2] of 8.71 nM.

For `CC[C@H](C)[C@@H]1NC(=O)[C@@H](Cc2cc3ccccc3[nH]2)NC(=O)CC2(CCCCC2)SSC[C@@H](C(=O)N2CCC[C@H]2C(=O)N[C@@H](CCCN=C(N)N)C(=O)NCC(N)=O)NC(=O)[C@H](CC(N)=O)NC(=O)[C@H](CCC(N)=O)NC1=O`, the ED [3] was 2 nM/kg.

With `CC[C@H](C)[C@@H]1NC(=O)[C@H](Cc2ccc(O)cc2)N(C)C(=O)CC2(CCCCC2)SSC[C@H](C(=O)N2CCC[C@H]2C(=O)N[C@@H](CCCN)C(=O)NCC(N)=O)NC(=O)[C@H](CC(N)=O)NC(=O)[C@H](CCC(N)=O)NC1=O` the ED [3] was 3.73 nM/kg.

For `CC[C@H](C)[C@@H]1NC(=O)[C@H](Cc2ccc(OC)cc2)NC(=O)CC2(CCCCC2)SSC[C@H](C(=O)N2CCC[C@H]2C(=O)N[C@@H](CCCN)C(=O)N[C@@H](Cc2ccc(O)cc2)C(N)=O)NC(=O)[C@H](CC(N)=O)NC(=O)[C@H]([C@@H](C)O)NC1=O`, the ED [11] was 5.63 nM/kg.

Molecule `CC[C@H](C)[C@@H]1NC(=O)[C@@H](Cc2c[nH]c3ccccc23)NC(=O)CC2(CCCCC2)SSC[C@@H](C(=O)N2CCC[C@H]2C(=O)N[C@@H](CCCN)C(=O)NCC(N)=O)NC(=O)[C@H](CC(N)=O)NC(=O)[C@H]([C@@H](C)O)NC1=O` has a pA2 [4] of 7.64, a pA2 [2] of 5.43 and a Kb [6] of 45.7 nM. It also gave a pA2 [7] of 8.02.

With `COc1ccc(C[C@@H]2NC(=O)CC3(CCCCC3)SSC[C@H](C(=O)N3CCC[C@H]3C(=O)N[C@@H](CCCN=C(N)N)C(=O)NCC(N)=O)NC(=O)[C@H](CC(N)=O)NC(=O)[C@H](CCC(N)=O)NC(=O)[C@H](Cc3ccccc3)NC2=O)cc1` the ED [12] was 17 nM/kg.

Molecule `CC(C)[C@@H]1NC(=O)[C@@H](Cc2ccccc2)NC(=O)[C@@H](Cc2ccccc2)NC(=O)CC2(CCCCC2)SSC[C@@H](C(=O)N2CCC[C@H]2C(=O)N[C@@H](CCCN=C(N)N)C(=O)NCC(N)=O)NC(=O)[C@@H](CC(N)=O)NC1=O` has an ED [1] of 0.67 nM/kg and an ED [3] of 0.58 nM/kg.

With `CC[C@H](C)[C@@H]1NC(=O)[C@H](Cc2cc3ccccc3[nH]2)NC(=O)CC2(CCCCC2)SSC[C@H](C(=O)N2CCC[C@H]2C(=O)N[C@@H](CCCN=C(N)N)C(=O)NCC(N)=O)NC(=O)[C@H](CC(N)=O)NC(=O)[C@H](CCC(N)=O)NC1=O` the ED [3] was 2 nM/kg.
